Results: PubChem BioAssay (NCI)
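Exposure lasted 48 hours, with cells grown in 96-well plates and compounds tested at five concentrations. Definition used: TGI = concentration required for complete inhibition of growth.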

Columns and labels:
Assay in all cases: NCI-60 cell line screen, 48 h
SK-MEL-5 melanoma = tested on: SK-MEL-5 melanoma
ACHN renal = tested on: ACHN renal
CCRF-CEM leukemia = tested on: CCRF-CEM leukemia
DU-145 prostate = tested on: DU-145 prostate
TK-10 renal = tested on: TK-10 renal
786-0 renal = tested on: 786-0 renal
KM12 colon = tested on: KM12 colon
SF-295 CNS = tested on: SF-295 CNS
COLO 205 colon = tested on: COLO 205 colon
SR leukemia = tested on: SR leukemia
HS 578T breast = tested on: HS 578T breast
HL-60(TB) leukemia = tested on: HL-60(TB) leukemia
MDA-N = tested on: MDA-N
OVCAR-8 ovarian = tested on: OVCAR-8 ovarian
NCI-H460 lung = tested on: NCI-H460 lung
UACC-257 melanoma = tested on: UACC-257 melanoma
DMS 114 small cell lung = tested on: DMS 114 small cell lung
SK-MEL-2 melanoma = tested on: SK-MEL-2 melanoma
NCI/ADR-RES ovarian = tested on: NCI/ADR-RES ovarian
RPMI-8226 leukemia = tested on: RPMI-8226 leukemia
HCT-116 colon = tested on: HCT-116 colon
A549 NSCLC = tested on: A549 NSCLC
IGROV1 ovarian = tested on: IGROV1 ovarian
K-562 leukemia = tested on: K-562 leukemia
M14 melanoma = tested on: M14 melanoma
DLD-1 colon = tested on: DLD-1 colon
NCI-H522 lung = tested on: NCI-H522 lung
SNB-75 CNS = tested on: SNB-75 CNS
PC-3 prostate = tested on: PC-3 prostate
MDA-MB-231 breast = tested on: MDA-MB-231 breast
LXFL 529 NSCLC = tested on: LXFL 529 NSCLC
SK-MEL-28 melanoma = tested on: SK-MEL-28 melanoma
HOP-18 NSCLC = tested on: HOP-18 NSCLC
UO-31 renal = tested on: UO-31 renal
SF-268 CNS = tested on: SF-268 CNS
U251 CNS = tested on: U251 CNS
KM20L2 colon = tested on: KM20L2 colon
CAKI-1 renal = tested on: CAKI-1 renal
HCC-2998 colon = tested on: HCC-2998 colon
UACC-62 melanoma = tested on: UACC-62 melanoma
OVCAR-4 ovarian = tested on: OVCAR-4 ovarian
OVCAR-5 ovarian = tested on: OVCAR-5 ovarian
MCF7 breast = tested on: MCF7 breast
MOLT-4 leukemia = tested on: MOLT-4 leukemia
HOP-92 NSCLC = tested on: HOP-92 NSCLC
SNB-19 CNS = tested on: SNB-19 CNS
OVCAR-3 ovarian = tested on: OVCAR-3 ovarian
SN12C renal = tested on: SN12C renal
MALME-3M melanoma = tested on: MALME-3M melanoma
MDA-MB-435 = tested on: MDA-MB-435
A498 renal = tested on: A498 renal
RXF 393 renal = tested on: RXF 393 renal
LOX IMVI melanoma = tested on: LOX IMVI melanoma
HCT-15 colon = tested on: HCT-15 colon
M19-MEL melanoma = tested on: M19-MEL melanoma
SK-OV-3 ovarian = tested on: SK-OV-3 ovarian
BT-549 breast = tested on: BT-549 breast
NCI-H226 lung = tested on: NCI-H226 lung
HT29 colon = tested on: HT29 colon
SNB-78 CNS = tested on: SNB-78 CNS
NCI-H23 lung = tested on: NCI-H23 lung
HOP-62 NSCLC = tested on: HOP-62 NSCLC
XF 498 CNS = tested on: XF 498 CNS
SF-539 CNS = tested on: SF-539 CNS
EKVX NSCLC = tested on: EKVX NSCLC
DMS 273 small cell lung = tested on: DMS 273 small cell lung
SW-620 colon = tested on: SW-620 colon

CCCCCCCCCCCCCCCC(=O)OCC1OC(OC)C(NC(=O)N(CCCl)N=O)C(O)C1O (configuration not stated)
TGI (SK-MEL-5 melanoma): 59.9 µM
TGI (ACHN renal): 57.2 µM
TGI (CCRF-CEM leukemia): 53.7 µM
TGI (DU-145 prostate): 92.6 µM
TGI (TK-10 renal): 63.2 µM
TGI (786-0 renal): 14.9 µM
TGI (KM12 colon): 56.2 µM
TGI (SF-295 CNS): 24.7 µM
TGI (COLO 205 colon): 47.4 µM
TGI (SR leukemia): > 60.9 µM
TGI (HS 578T breast): 63.9 µM
TGI (HL-60(TB) leukemia): 28.3 µM
TGI (MDA-N): 32 µM
TGI (OVCAR-8 ovarian): 45.3 µM
TGI (NCI-H460 lung): 23.1 µM
TGI (UACC-257 melanoma): 47.8 µM
TGI (DMS 114 small cell lung): 46.4 µM
TGI (SK-MEL-2 melanoma): 36.8 µM
TGI (NCI/ADR-RES ovarian): 58.9 µM
TGI (RPMI-8226 leukemia): 61.6 µM
TGI (HCT-116 colon): 26.8 µM
TGI (A549 NSCLC): 35.2 µM
TGI (IGROV1 ovarian): 54 µM
TGI (K-562 leukemia): 62.1 µM
TGI (M14 melanoma): 36.4 µM
TGI (DLD-1 colon): 37.9 µM
TGI (NCI-H522 lung): 34.7 µM
TGI (SNB-75 CNS): 38.5 µM
TGI (PC-3 prostate): 51.7 µM
TGI (MDA-MB-231 breast): 35.5 µM
TGI (LXFL 529 NSCLC): 37.4 µM
TGI (SK-MEL-28 melanoma): > 85.4 µM
TGI (HOP-18 NSCLC): > 100 µM
TGI (UO-31 renal): 48.9 µM
TGI (SF-268 CNS): 37.4 µM
TGI (U251 CNS): 27 µM
TGI (KM20L2 colon): 58.4 µM
TGI (CAKI-1 renal): 45.4 µM
TGI (HCC-2998 colon): 48.2 µM
TGI (UACC-62 melanoma): 15 µM
TGI (OVCAR-4 ovarian): 53.4 µM
TGI (OVCAR-5 ovarian): > 74 µM
TGI (MCF7 breast): > 100 µM
TGI (MOLT-4 leukemia): 29.2 µM
TGI (HOP-92 NSCLC): 47.8 µM
TGI (SNB-19 CNS): > 67.2 µM
TGI (OVCAR-3 ovarian): 48.6 µM
TGI (SN12C renal): 39.3 µM
TGI (MALME-3M melanoma): 59 µM
TGI (MDA-MB-435): 31.3 µM
TGI (A498 renal): 61.3 µM
TGI (RXF 393 renal): 32.7 µM
TGI (LOX IMVI melanoma): 17.5 µM
TGI (HCT-15 colon): 35.4 µM
TGI (M19-MEL melanoma): > 89.6 µM
TGI (SK-OV-3 ovarian): 63 µM
TGI (BT-549 breast): 99.4 µM
TGI (NCI-H226 lung): 39.7 µM
TGI (HT29 colon): 33.7 µM
TGI (SNB-78 CNS): > 85.5 µM
TGI (NCI-H23 lung): 32 µM
TGI (HOP-62 NSCLC): 31.9 µM
TGI (XF 498 CNS): 25.7 µM
TGI (SF-539 CNS): 15.3 µM
TGI (EKVX NSCLC): > 87.5 µM
TGI (DMS 273 small cell lung): 25.2 µM
TGI (SW-620 colon): 28.5 µM
